Experimental data published in patent US10272135B2, “Apolipoprotein O and fragments thereof for inducing apoptosis in a cancerous cell” (INSERM (INSTITUT NATIONAL DE LA SANTÉ ET DE LA RECHERCHE …, priority 2014, dated 2019).

Legend:
Type in all cases: cell-based
[1] = tested on: H9c2 cardiac myoblasts; experiment: Measurement of O2 consumption (Oroboros Oxygraph-2k) in cardiac myoblasts; settings: for oxygen consumption: cells treated with 1 μM antimycin or 1.5 μg/ml oligomycin (FIG. 4B)
Text: After ethical committee approval, all patients in this study gave written consent for sample collection and molecular analysis prior to inclusion. Patients were carefully selected by physicians from the Department of Cardiology, Toulouse University Hospital, prior to coronary by-pass surgery. Bioinformatics. Microarray expression data from human heart samples were downloaded from the GEO repository (GSE1145). This series consisted of 107 myocardial samples collected from patients undergoing cardiac transplantation whose failure arises from different etiologies (e.g. idiopathic dilated cardiomyopathy, ischemic cardiomyopathy, valvular cardiomyopathy, and hypertrophic cardiomyopathy) and from “normal” organ donors whose hearts cannot be used for transplants. Arrays were intensity normalized and hierarchical clustering (average group linkage, Pearson correlation, threshold r=0.8) was applied to identify groups of co-expressed genes. ApoO expression levels were plotted for the 107 human hearts tested and used to define relevant molecular pathways using both Toppgene and Ingenuity Pathway Analysis (Ingenuity systems, Redwood City, Calif., USA). ApoO subcellular localization was predicted using Mitopred, mitoprot and YLoc. Animals: All animal Studies followed the INSERM Institute Animal Facility guidelines and were approved by the animal care committees of the INSERM I2MC UMR 1048. All animal procedures were performed according to the guidelines of the French Ministry of Agriculture. Animals were housed at the Toulouse I2MC animal facility in a room lit 12 h per day (6 AM-6 PM) at an ambient temperature of 22+/−1° C. Construction of ApoO Expression Vectors To overexpress human ApoO (pTT-ApoO), the ApoO coding sequence was amplified using primers hApoO5BamPTT (SEQ ID NO: 2) and hApoO3BamPTT (SEQ ID NO: 3) and cloned into the BamH1 site of pTT expression vector. pSNAP-ApoO was generated by PCR amplification of pTT-ApoO using primers SnapApoEcorV-F (SEQ ID NO: 4) and SnapApoEcorV-R (SEQ ID NO: 5) and cloned into the EcoRV site of pSNAP-Tag® (Ozyme, Saint-Quentin-en-Yvelines, France). pGEX2T-ApoO was constructed by PCR amplification of pTT-ApoO using hApoOpGEX1FBam (SEQ ID NO: 6) and hApoOpGEX1RSma (SEQ ID NO: 7) and cloned into the Bam HI/Sma I site of pGEX2T (Promega, Charbonnières-les-Bains). All primers used in this work were synthesized by Eurogentec France (Angers). All restriction enzymes used were from New England Biolabs (Ozyme, Saint-Quentin-en-Yvelines). All ApoO sequences within the expression vectors were verified by DNA double strand sequencing using ABI PRISM®BigDye™ Terminator version 3.1 Ready reaction cycle sequencing kit (Life Technologies SAS, Villebon sur Yvette) and loaded on an ABI 3130XL DNA sequencing instrument (Life Technologies SAS, Villebon sur Yvette). Cell Culture and Tranfection of H9C2 Cardic Myoblasts H9c2 were obtained from the European Collection of Cell Cultures (Salisbury, England). H9c2 cells were cultured in Dulbecco's modified Eagle medium (Life Technologies SAS, Villebon sur Yvette) adjusted to contain 1.5 g/liter sodium bicarbonate and supplemented with antibiotic-antimycotic solution (Life Technologies SAS, Villebon sur Yvette) and 10% fetal bovine serum (FBS, AbCys s.a., Paris). Cells were plated on 10-cm diameter tissue culture dish and grown in a 5% CO2 incubator at 37° C. with saturating humidity with medium changes every 2 days. […]

[2] = tested on: Caspase-3; experiment: Caspase-3 enzymatic activity in H9c2 cardiac myoblasts; settings: ApoO cells treated with both palmitate and oleate (FIG. 11c)
Text: (§1) After ethical committee approval, all patients in this study gave written consent for sample collection and molecular analysis prior to inclusion. Patients were carefully selected by physicians from the Department of Cardiology, Toulouse University Hospital, prior to coronary by-pass surgery. Bioinformatics. Microarray expression data from human heart samples were downloaded from the GEO repository (GSE1145). This series consisted of 107 myocardial samples collected from patients undergoing cardiac transplantation whose failure arises from different etiologies (e.g. idiopathic dilated cardiomyopathy, ischemic cardiomyopathy, valvular cardiomyopathy, and hypertrophic cardiomyopathy) and from “normal” organ donors whose hearts cannot be used for transplants. Arrays were intensity normalized and hierarchical clustering (average group linkage, Pearson correlation, threshold r=0.8) was applied to identify groups of co-expressed genes. ApoO expression levels were plotted for the 107 human hearts tested and used to define relevant molecular pathways using both Toppgene and Ingenuity Pathway Analysis (Ingenuity systems, Redwood City, Calif., USA). ApoO subcellular localization was predicted using Mitopred, mitoprot and YLoc. Animals: All animal Studies followed the INSERM Institute Animal Facility guidelines and were approved by the animal care committees of the INSERM I2MC UMR 1048. All animal procedures were performed according to the guidelines of the French Ministry of Agriculture. Animals were housed at the Toulouse I2MC animal facility in a room lit 12 h per day (6 AM-6 PM) at an ambient temperature of 22+/−1° C. […] All ApoO sequences within the expression vectors were verified by DNA double strand sequencing using ABI PRISM®BigDye™ Terminator version 3.1 Ready reaction cycle sequencing kit (Life Technologies SAS, Villebon sur Yvette) and loaded on an ABI 3130XL DNA sequencing instrument (Life Technologies SAS, Villebon sur Yvette). […]

[3] = tested on: H9c2 cardiac myoblasts; experiment: Lipid profiling (FAME, diglycerides, triglycerides, BODIPY-palmitate) in cardiac myoblasts; settings: ApoO cells treated with both palmitate and oleate (FIG. 11a-b)
Text: as §1

[4] = tested on: long-chain acyl-CoA synthetase (ACSL); experiment: Acyl-CoA synthetase activity in cardiac myoblasts; settings: ApoO cells treated with 5 μM triacsin C
Text: After ethical committee approval, all patients in this study gave written consent for sample collection and molecular analysis prior to inclusion. Patients were carefully selected by physicians from the Department of Cardiology, Toulouse University Hospital, prior to coronary by-pass surgery. Bioinformatics. Microarray expression data from human heart samples were downloaded from the GEO repository (GSE1145). This series consisted of 107 myocardial samples collected from patients undergoing cardiac transplantation whose failure arises from different etiologies (e.g. idiopathic dilated cardiomyopathy, ischemic cardiomyopathy, valvular cardiomyopathy, and hypertrophic cardiomyopathy) and from “normal” organ donors whose hearts cannot be used for transplants. Arrays were intensity normalized and hierarchical clustering (average group linkage, Pearson correlation, threshold r=0.8) was applied to identify groups of co-expressed genes. […] All ApoO sequences within the expression vectors were verified by DNA double strand sequencing using ABI PRISM®BigDye™ Terminator version 3.1 Ready reaction cycle sequencing kit (Life Technologies SAS, Villebon sur Yvette) and loaded on an ABI 3130XL DNA sequencing instrument (Life Technologies SAS, Villebon sur Yvette). […]

N#CC(C#N)=NNc1cccc(Cl)c1 [CCCP, carbonyl cyanide m-chlorophenyl hydrazone]
increase in oxygen consumption ([1]; ApoO cells, addition of uncoupler 2 μM CCCP (FIG. 4B)): 2 fold

antimycin
oxygen consumption [1]: almost completely inhibited

CCCCCCCC/C=C\CCCCCCCC(=O)O [oleate, reference compound]
decrease in Caspase-3 activity [2]: 2 fold | decrease in diglyceride/triglyceride ratio [3]: 12 fold

CC[C@H]1/C=C/C=C/C[C@@H](C)[C@H](O)[C@@](C)(O)C(=O)[C@@H](C)[C@H](O)[C@@H](C)C(=O)[C@@H](C)[C@H](O)[C@@H](C)/C=C/C(=O)O[C@@H]2[C@H](C)[C@H](CC1)O[C@]1(CC[C@H](C)[C@H](C[C@@H](C)O)O1)[C@H]2C [oligomycin]
oxygen consumption [1]: partly inhibited

CCC/C=C/C/C=C/C=C/C=N/NN=O [triacsin C, reference compound]
ApoO-induced increase of ACSL activity [4]: significantly reversed
